# Columns and labels:
# [1] = Inhibition of Plasmodium vivax NMT
# [2] = Inhibition of N-terminal 6His-tagged Plasmodium vivax NMT (27 to 410 residues) expressed in Escherichia coli Rosetta 2 (DE3) cells preincubated for 30 mins followed by myrCoA, PfARF and CPM addition by fluorescence based plate reader assay
SMILES,IC50 [1],IC50 [2]
O=C(c1cccc(NCc2cc(-c3ccc(Cl)cc3)c[nH]c2=O)c1)N1CCOCC1,3400 nM,
Cc1c(CCOc2ccc3ccccc3c2-c2ccnc(N3CCNCC3)c2)c(C(=O)NCC(N)=O)nn1C,,5070 nM
Cc1nn(C)c(C)c1CCOc1cccnc1-c1cccc(N2CCNCC2)c1,,80.2 nM
Cc1c(CCOc2ccc3ccccc3c2-c2ccnc(N3CCNCC3)c2)c(C(=O)Nc2cccnc2)nn1C,,1000 nM
